Laboratory results from US8227428B2, “Anti-infammatory macrolide” (Glaxo Group Limited, priority 2009, dated 2012).

Tests used:
[1] = In vitro stability in human plasma; format: in vitro ADME; conditions: 37° C., 2000 ng/mL, over 24 hours
Method: (§1) An in vitro stability study in human whole blood and plasma is carried out over 24 hours at 37° C. Drug-free freshly collected human blood (CPD—citrate-phosphate-dextrose is used for all blood collections as anticoagulant) and plasma are spiked with a previously prepared standard solution of test compound to a final concentration of 2000 ng/mL. For each compound blood and plasma are spiked in duplicate and incubated for 24 hours. Two separate aliquots of blood or plasma (50 μL) are sampled from each incubation mixture at 0, 15, 30, 60, 120, 240 and 1440 minutes. All aliquots are mixed with an equal volume of water (50 μL) and extracted with 300 μL of acetonitrile/methanol (2:1) containing internal standard (roxithromycin). The samples are then vortexed, centrifuged and analysed by LC/MS/MS (MRM mode). Results are expressed as the percentage of compound remaining, expressed as the ratio of analyte/internal standard.

[2] = test system: Lung neutrophilia induced by bacterial lipopolysaccharide (LPS); assay: Lung neutrophilia induced by bacterial lipopolysaccharide (LPS) in male BALB/cJ mice; format: in vivo; conditions: average; single dose 200 mg/kg i.p.; vs LPS challenged untreated animals
Method: For intraperitoneal administration (i.p.) compounds are dissolved in a final concentration of 10 mg/mL. The required amount of compound is first dissolved in dimethylsulfoxide (DMSO, Sigma) and then diluted with 0.5% (w/v) methyl-cellulose so that the final DMSO concentration is 5% (v/v). The obtained solution is applied in a dose volume of 0.2 mL per 10 g of animal. Therefore, the compound dose is 200 mg/kg.
Male BALB/cJ mice (Charles River, France), with an average weight of ˜30 g are randomly grouped (n=8 in testing group, 10 in positive control and 8 in negative control). Mice receive intraperitoneally (i.p.) a single dose of 200 mg/kg of test compound. Two hours after administration, 2 μg of LPS (from Escherichia coli serotype 0111:B4, Sigma), dissolved in sterile PBS in a volume of 60 μL, is intranasally administered to all experimental groups except the negative control group, which receive the same volume of vehicle (PBS). Animals are sacrificed approximately 24 hours after application of LPS in order to obtain bronchioalveolar lavage fluid (BALF), which is used to determine absolute number of cells and the percentage of neutrophils. Results are expressed as percentage decrease in total cell number and number of neutrophils in BALF of treated animals compared to positive control (LPS challenged, but untreated animals).

[3] = Stability in buffer solutions pH 2 to pH 8 at 25° C.; format: physicochemical; conditions: 25° C., during 24 hours
Method: (§2) Stability in buffer solutions pH 2 to pH 8 at 25° C., and in bio-relevant media (SGF pH 1.6, Fasted SIF pH 6.5 and Fed SIF pH 5.0) at 37° C., during 24 hours is monitored. The samples are analysed by LC/MS.
Buffer Solutions and Physiologically Relevant Media Used in Stability Assay:
LC Conditions: Instrument HP1100
Column: Waters XBridge C18, 2.1×50 mm, 3.5 μm
Guard column: Waters XBridge C18, 2.1×10 mm, 3.5 μm
• A) 0.1% HCOOH/H2O • B) 0.1% HCOOH/CH3CN Gradient Timetable: […]
(§3) Flow: 0.3 mL/min Column temp.: 25° C. Sample temp.: 25° C. (for stability assay in buffer solutions) • 37° C. (for stability assay in bio-relevant media) Injector volume: 3 μL (without injection program) MS Conditions: Instrument HP MS API-ES, positive ion mode Mass Range: 150-1500 Fragmentor: 100 Gain: 1.0 Treshold: 150 Step size: 0.20 Gas Temperature: 350° C. Drying Gas Flow: 13 L/min Nebulizer Pressure: 35 psig Capillary Voltage Positive 4000 V • Negative 4000 V Sample Preparation: a) For Stability Assay in Buffer Solutions
Compounds are dissolved in CH3CN to produce a 1 mg/mL stock solution. The stock solution is diluted to a concentration of 0.2 mg/mL (1 mL solution in 4 mL buffer) with appropriate buffer to produce a working solution.
Each solution at each pH is then dispatched into vials that are sealed and stored at room temperature in order to be analyzed at the proper time point. Before analysis, pH values of prepared sample solutions are checked and adjusted if neccessary.

[4] = test system: Haemophilus influenzae ATCC49247; assay: Anti-bacterial screening, broth microdilution MIC; format: cell-based; conditions: read-out: minimal inhibitory concentration (MIC)
Method: (§4) Whole-cell antimicrobial activity of compounds against clinically relevant bacteria (Staphylococcus aureus ATCC13709, Streptococcus pneumoniae ATCC49619, Streptococcus pyogenes ATCC700294, Moraxella catarrhalis ATCC23246, Haemophilus influenzae ATCC49247 and Escherichia coli ATCC25922) is determined by broth microdilution using the Clinical and Laboratory Standards (CLSI) recommended procedure (Document M7-[…], Methods for Dilution Susceptibility Tests for Bacteria that Grow Aerobically). Compounds are dissolved in DMSO to produce a 50 mM stock solution. The stock solution is diluted to a concentration of 128 μg/mL in appropriate media (Haemophilus Test Medium for Haemophilus influenzae, Mueller-Hinton Broth for Staphylococcus aureus, Moraxella catarrhalis and Escherichia coli, and Mueller-Hinton Broth supplemented with 5% horse serum for Streptococcus pyogenes and Streptococcus pneumoniae) to produce a working solution. A Tecan Genesis 150 Workstation (Tecan Group Ltd. Mannedorf, Switzerland) is used to prepare serial two-fold dilutions (50 μL aliquots) of the working solution in a U-shape bottom 96 well microtitre plate. After the compounds are diluted, a 50 μL aliquot of the test isolate ( 1×10^6 cfu/ml) is added to each well of the microtitre plate. The final test concentrations range from 0.125-64 μg/mL. Inoculated plates are incubated at 35° C. in ambient air for 18 to 24 hours. The minimum inhibitory concentration (MIC) is determined as the lowest concentration of compound that inhibited visible growth.

[5] = test system: Streptococcus pneumoniae ATCC49619; assay: Anti-bacterial screening, broth microdilution MIC; format: cell-based; conditions: read-out: minimal inhibitory concentration (MIC)
Method: as §4

[6] = test system: Moraxella catarrhalis ATCC23246; assay: Anti-bacterial screening, broth microdilution MIC; format: cell-based; conditions: read-out: minimal inhibitory concentration (MIC)
Method: as §4

[7] = test system: Staphylococcus aureus ATCC13709; assay: Anti-bacterial screening, broth microdilution MIC; format: cell-based; conditions: read-out: minimal inhibitory concentration (MIC)
Method: as §4

[8] = test system: Escherichia coli ATCC25922; assay: Anti-bacterial screening, broth microdilution MIC; format: cell-based; conditions: read-out: minimal inhibitory concentration (MIC)
Method: as §4

[9] = test system: Streptococcus pyogenes ATCC700294; assay: Anti-bacterial screening, broth microdilution MIC; format: cell-based; conditions: read-out: minimal inhibitory concentration (MIC)
Method: as §4

[10] = In vitro stability in human whole blood; format: in vitro ADME; conditions: 37° C., 2000 ng/mL, over 24 hours
Method: as §1

[11] = Stability in bio-relevant media (SGF, Fasted SIF, Fed SIF) at 37° C.; format: physicochemical; conditions: SGF pH 1.6, Fasted SIF pH 6.5, Fed SIF pH 5.0, 37° C., during 24 hours
Method: as §2
SGF (Simulated Gastric Fluid) pH 1.6
Fasted SIF (Simulated Intestinal Fluid) pH 6.5
Fed SIF (Simulated Intestinal Fluid) pH 5.0
as §3
b) For Stability Assay in Bio-Relevat Media
b1) For SGF Media pH 1.6 Testing:
Compounds are dissolved in SGF media pH 1.6 to give 0.2 mg/mL solution in case of compounds 1 and 2, and to give 0.1 mg/mL solution in case of compound 3. Solutions are then stored in a water bath at 37° C. and removed at the proper time point for LC/MS analysis. Before analysis, pH values of prepared sample solutions are checked and adjusted if necessary.
b2) For Fasted SIF Media pH 6.5 Testing:
(§5) Compounds are dissolved in Fasted SIF media pH 6.5 to give 2 mg/mL solution. Solutions are then dispatched into vials that are stored in a water bath at 37° C. and removed at the proper time point and diluted 10 times with CH3CN for LC/MS analysis. Before analysis, pH values of prepared sample solutions are checked and adjusted if necessary.
b3) For Fed SIF Media pH 5.0 Testing:
as §5, with “Fed” for “Fasted”, “5.0” for “6.5”, “40” for “10”

## CC[C@H]1OC(=O)[C@H](C)[C@@H](O[C@H]2C[C@@](C)(OC)[C@@H](OC(=O)CN(CC)CC)[C@H](C)O2)[C@H](C)[C@@H](O[C@@H]2O[C@H](C)C[C@H](NC)[C@H]2O)[C@](C)(OC)C[C@@H](C)C(=O)N[C@H](C)[C@@H](O)[C@]1(C)O [Example 1, 3′-N-Demethyl-4″-O-(2-diethylaminoethanoyl)-6-O-methyl-9a-aza-9a-homoerythromycin A]
[1]
  stability in plasma: stable
[2]
  inhibition of the number of neutrophils in BALF: more than 89%
[3]
  stability in buffers pH 2 to 8: showed stability
[4]
  MIC: > 64 µg/mL
[5]
  MIC: > 64 µg/mL
[6]
  MIC: > 64 µg/mL
[7]
  MIC: > 64 µg/mL
[8]
  MIC: > 64 µg/mL
[9]
  MIC: > 64 µg/mL
[10]
  stability in whole blood: stable
[11]
  stability in all three bio relevant media: Examples 1 and 3 showed stability in all three bio relevant media.
